From publication PMC10035904, “Synthesis of novel sulphamethoxazole derivatives and exploration of their anticancer and antimicrobial properties” (PLOS ONE, 2023)
Values after ≈ are worked out from the molar mass of the structure shown.

Columns and labels:
Type in all cases: cell-based
[1] = tested on: Escherichia coli ATCC 25922; experiment: Serial dilution on solid agar, E. coli; conditions: ATCC25922, solid Mueller-Hinton agar, 24 hours
Method: (§1) Antimicrobial activity of compound 16b on solid agar was tested using the same microbial cultures, and the same suspension preparation procedure, as described in above section. All procedures were done in aseptic conditions.
(§2) Mueller-Hinton agar was boiled and kept at to 37 °C during the whole procedure. Compound 16b solution was prepared in DMSO right before experiment. The Agar was mixed with compound solution at different ratios to make the final compound concentrations of 1 mM, 400 μM, 200 μM and 100 μM. Then 10 ml of prepared solution was poured into sterile Petri dishes (85 mm in diameter) and kept in aseptic conditions while the agar solidified. The agar with 0.5% of DMSO served as a negative control. With the help of loop standard microbial cultures by 0.1 ml were poured on the surface of prepared agar with investigative compound. Then Petri dishes were kept for 24 hours in thermostatic conditions.
(§3) The minimal dilution, i.e. the lowest concentration in μg/mL of the investigative and comparison compounds that inhibited visible growth of microorganisms was the minimal inhibitory concentration (MIC).

[2] = tested on: Enterococcus faecalis ATCC 29212; experiment: Serial broth dilution in liquid medium, E. faecalis; conditions: ATCC29212, Mueller-Hinton broth, 24 hours, 50% reduction of microbial growth, n = 3
Method: (§4) Antibacterial and antifungal susceptibility to the compound 16b was tested using a serial broth dilution technique in Mueller-Hinton broth II (BBL, Cockeysville, USA), as described elsewhere. All procedures were done in aseptic conditions. Standard bacterial and fungal cultures were used: Staphylococcus aureus ATCC 25923, Staphylococcus epidermidis ATCC 12228, Escherichia coli ATCC 25922, Enterococcus faecalis ATCC 29212, Klebsiella pneumoniae ATCC 33499, Pseudomonas aeruginosa ATCC 27853, Proteus mirabilis ATCC 12459, Bacillus cereus ATCC 8035, and Candida albicans ATCC 60193. Standard cultures of nonsporic bacteria S. aureus, S. epidermidis, E. coli, E. faecalis, K. pneumoniae, P. aeruginosa and P. mirabilis were cultivated for 20–24 hours at 37°C in Mueller-Hinton Agar (BBL, Cockeysville, USA). A bacterial suspension was prepared from cultivated bacterial cultures in physiological solution according to turbidity standard 0.5 McFarland. Standard culture of sporic bacteria B. cereus was cultivated for 7 days at 37°C in Mueller-Hinton II Agar. […] Then the absorbance was measured at 600 nm using a multi-detection microplate reader. […]

[3] = tested on: Candida albicans ATCC 60193; experiment: Serial broth dilution in liquid medium, C. albicans; conditions: ATCC60193, Mueller-Hinton broth, 48 hours, 50% reduction of microbial growth, n = 3
Method: as §4

[4] = tested on: Staphylococcus epidermidis ATCC 12228; experiment: Serial dilution on solid agar, S. epidermidis; conditions: ATCC12228, solid Mueller-Hinton agar, 24 hours
Method: as §1, §2, §3

[5] = tested on: Candida albicans ATCC 60193; experiment: Serial dilution on solid agar, C. albicans; conditions: ATCC60193, solid Mueller-Hinton agar, 24 hours
Method: as §1, §2, §3

[6] = tested on: human clear cell renal cell carcinoma line (CaKi-1); experiment: MTT cell viability assay, CaKi-1; conditions: 72 hours of incubation, n = 3, read-out: EC50 against CaKi-1
Method: The human clear cell renal cell carcinoma line (CaKi-1) was obtained from American Type Culture Collection (ATCC, Manassas, VA). The human prostate carcinoma cell line PPC-1 was originally obtained from ATCC and kindly provided by Prof. Tambet Teesalu (University of Tartu, Estonia). Human foreskin fibroblasts (HF) CRL-4001 were originally obtained from ATCC and kindly provided by Prof. Helder Santos (University of Helsinki, Finland). Cells were cultured in Dulbecco’s Modified Eagle’s GlutaMAX medium (Gibco (Carlsbad, CA, USA) supplemented with 10,000 U/mL penicillin, 10 mg/mL streptomycin (Gibco), and 10% fetal bovine serum (Gibco). During cell passaging, Tryple Express reagent (Gibco) was used for cell detachment. Cell cultures were grown at 37°C in a humidified atmosphere containing 5% CO2. They were used until the passage of 20.
The effect of synthesized compounds on cell viability was studied using 3-(4,5-dimethylthiazol-2-yl)-2,5-diphenyltetrazolium bromide (MTT; Sigma-Aldrich Co., St Louis, MO, USA) assay, as described elsewhere. […] The absorbance was measured at 570 and 630 nm using a multi-detection microplate reader. The compound effect on cell viability was calculated using a formula (1): Relativecellviability%=A−A0/ANC−A0 (1) Where: […]

[7] = tested on: Pseudomonas aeruginosa ATCC 27853; experiment: Serial broth dilution in liquid medium, P. aeruginosa; conditions: ATCC27853, Mueller-Hinton broth, 24 hours, n = 3
Method: as §4

[8] = tested on: Proteus mirabilis ATCC 12459; experiment: Serial dilution on solid agar, P. mirabilis; conditions: ATCC12459, solid Mueller-Hinton agar, 24 hours
Method: as §1, §2, §3

[9] = tested on: Klebsiella pneumoniae ATCC 33499; experiment: Serial dilution on solid agar, K. pneumoniae; conditions: ATCC33499, solid Mueller-Hinton agar, 24 hours
Method: as §1, §2, §3

SMILES: Cc1cc(NS(=O)(=O)c2ccc(NCCC(=O)NN=Cc3ccc([N+](=O)[O-])o3)cc2)no1 [Compound 16b, N-(5-methylisoxazol-3-yl)-4-((3-(2-((5-nitrofuran-2-yl)methylene)hydrazineyl)-3-oxopropyl)amino)-benzenesulfonamide]
- MIC [1]: 400 µM (≈ 185 µg/mL)
- EC50 [2]: 90 ± 6 µM
- EC50 [3]: 85.5 ± 7.1 µM
- MIC [4]: 100 µM (≈ 46.2 µg/mL)
- MIC [5]: 400 µM (≈ 185 µg/mL)
- EC50 [6]: 12.4 ± 1.6 µM
- EC50 [7]: > 100 µM
- MIC [8]: 1000 µM (≈ 462 µg/mL)
- MIC [9]: 1000 µM (≈ 462 µg/mL)
